Here are results for 8 compounds from ChEMBL document CHEMBL1938377, “Synthesis and evaluation of 17α-E-20-(heteroaryl)norpregn-1,3,5(10),20 tetraene-3,17β-diols [17α-(heteroaryl)vinyl estradiols] as ligands for the estrogen receptor-α ligand binding domain (ERα-LBD)” (Bioorg Med Chem Lett, 2012).

As a reminder, the EC50 is the midpoint of the concentration-response curve.

Molecules are shown by their SMILES. Active and inactive are the calls of the source. No cut-off for these calls is given here.

Experiment [1] addresses T1, Estrogen receptor (Homo sapiens) (UniProt P03372).
T1 sequence (whole entry): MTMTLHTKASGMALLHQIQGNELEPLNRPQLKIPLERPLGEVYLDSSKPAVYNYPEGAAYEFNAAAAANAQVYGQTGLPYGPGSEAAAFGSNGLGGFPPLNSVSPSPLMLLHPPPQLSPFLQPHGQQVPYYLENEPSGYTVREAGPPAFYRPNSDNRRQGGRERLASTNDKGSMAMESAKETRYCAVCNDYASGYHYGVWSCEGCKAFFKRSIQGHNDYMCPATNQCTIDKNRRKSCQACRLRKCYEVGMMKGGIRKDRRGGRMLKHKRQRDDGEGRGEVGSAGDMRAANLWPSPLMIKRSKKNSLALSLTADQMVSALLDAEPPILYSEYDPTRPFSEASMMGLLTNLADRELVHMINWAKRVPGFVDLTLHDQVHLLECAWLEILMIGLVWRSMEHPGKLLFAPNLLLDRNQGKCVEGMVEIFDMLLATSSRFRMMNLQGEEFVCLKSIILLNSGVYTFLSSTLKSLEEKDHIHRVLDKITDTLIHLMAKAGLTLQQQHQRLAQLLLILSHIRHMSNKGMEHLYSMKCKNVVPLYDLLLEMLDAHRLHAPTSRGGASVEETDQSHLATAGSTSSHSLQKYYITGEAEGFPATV
The experiment is described as follows: Displacement of [3H]-estradiol from human […] LBD expressed in Escherichia coli at 1 uM to 1 pM relative to estradiol.

Experiment [2] can be described thus: Agonist activity at estrogen receptor in human Ishikawa cells assessed as increase of alkaline phosphatase level after 3 days using P-nitrophenyl phosphate as substrate relative to estradiol. The format is functional.
For another experiment, the system named is Ishikawa. The experiment is described as follows: Antagonist activity at estrogen receptor in human Ishikawa cells assessed as inhibition of estradiol-induced alkaline phosphatase level after 3 days using P-nitrophenyl phosphate as substrate. The format is functional, cell-based.
Experiment [3] can be described thus: Agonist activity at estrogen receptor in human Ishikawa cells assessed as increase of alkaline phosphatase level after 3 days using P-nitrophenyl phosphate as substrate. As to conditions: 72 h. The format is functional, cell-based.

In turn, `C[C@]12CC[C@@H]3c4ccc(O)cc4CC[C@H]3[C@@H]1CC[C@@]2(O)/C=C/c1cncnc1` displayed an RBA in experiment [1] of 0.8. Besides, the RSA in experiment [2] came out at 0.4%. The inhibition result in the experiment on Ishikawa was “inactive”.
In experiment [1], `C[C@]12CC[C@@H]3c4ccc(O)cc4CC[C@H]3[C@@H]1CC[C@@]2(O)/C=C/c1ccccn1` showed an RBA of 1.5. Moreover, the RSA in experiment [2] was determined as 0.1%. The inhibition entry in the experiment with Ishikawa was “inactive”.
Compound `C[C@]12CC[C@@H]3c4ccc(O)cc4CC[C@H]3[C@@H]1CC[C@@]2(O)/C=C/c1ccccc1` gave an RBA in experiment [1] of 10.3. Further, the RSA in experiment [2] is reported as 9.5%. Further, the inhibition result in the experiment with Ishikawa is “inactive”.
Turning to `C[C@]12CC[C@@H]3c4ccc(O)cc4CC[C@H]3[C@@H]1CC[C@@]2(O)/C=C/c1ccncc1`, the RBA in experiment [1] was 2.5. Also, the RSA in experiment [2] was determined as 0.1%. Besides, the inhibition entry in the experiment with Ishikawa was “inactive”.
In the same order, the values of `C[C@]12CC[C@@H]3c4ccc(O)cc4CC[C@H]3[C@@H]1CC[C@@]2(O)/C=C/c1cccnc1` are 4, 0.25% and “inactive”.
`C[C@]12CC[C@@H]3c4ccc(O)cc4CC[C@H]3[C@@H]1CC[C@@]2(O)/C=C/c1cccs1` showed an RBA in experiment [1] of 2.7. In addition, the RSA in experiment [2] worked out at 2.5%. For the same compound, in the experiment on Ishikawa, the inhibition result was “inactive”.
The compound `C[C@]12CC[C@@H]3c4ccc(O)cc4CC[C@H]3[C@@H]1CC[C@@]2(O)/C=C/c1ccsc1` had an RBA in experiment [1] of 2.9. Besides, the RSA in experiment [2] worked out at 2.5%. In the experiment with Ishikawa, the inhibition entry was “inactive”.
Regarding `C[C@]12CC[C@@H]3c4ccc(O)cc4CC[C@H]3[C@@H]1CC[C@@H]2O` [ESTRADIOL], in experiment [3], the EC50 is 0.9 nM.
